# Results from PMC9701171 (Journal of pharmaceutical and biomedical analysis, 2022).
# pKd: −log10 of the molar value. Like-named read-outs stand apart in the source and are kept apart here.
# Tests used:
# [1] = molecular target: T1, HbA (Homo sapiens, UniProt P69905); test: Steady-state concentration-dependent HbA binding; details: for n (Hill coefficient): SS concentration-dependency; for fold enhancement of binding affinity (improvement of KD) relative to 5-HMF: compared to 5-HMF
# [2] = molecular target: T1, HbA; test: Time-dependent HbA binding kinetics; details: for time to achieve steady state (SS): 0.2 mM HbA, pilot observations; for time to equilibration with HbA: low [AEH]0, assuming first-order conditions
# [3] = system: HbS; details: cited from earlier work
# [4] = molecular target: T1, HbA; details: cited from earlier work
# [5] = Reference Method, sigmoidal Bmax model, PE (COV)
# T1 sequence (P69905 2-142 limits assumed): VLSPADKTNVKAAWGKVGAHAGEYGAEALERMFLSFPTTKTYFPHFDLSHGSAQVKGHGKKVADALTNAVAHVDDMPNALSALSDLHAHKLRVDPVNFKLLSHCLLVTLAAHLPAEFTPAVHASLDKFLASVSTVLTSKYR
# T1 sequence (P68871 2-147 partner limits assumed): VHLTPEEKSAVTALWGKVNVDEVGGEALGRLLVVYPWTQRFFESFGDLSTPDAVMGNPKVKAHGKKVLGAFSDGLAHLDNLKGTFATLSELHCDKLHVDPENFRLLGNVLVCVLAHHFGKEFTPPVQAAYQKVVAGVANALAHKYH
SMILES,pKd [1],"n (Hill coefficient) ([1]; sigmoidal Bmax model, PE (COV))",time to achieve steady state (SS) [2] [s],pKd [2],HbS-AEH adduct (Hb modification) [3] [%],time to equilibration with HbA [2],fold enhancement of binding affinity (improvement of KD) relative to 5-HMF [1],further results
CC(C)n1nccc1-c1ncccc1COc1cccc(O)c1C=O [GBT-440],3.96,1.6 (16%),≤ 120,,,,,"HbA modified to the HbA-AEH adduct at saturation ([1]; steady state, HbA solution): about 50%"
"COc1cc(C=O)ccc1O [Vanillin, 4-Hydroxy-5-methoxybenzaldehyde]",2.77,,,2.37,,,,"HbA modification ([1]; 5.8 mM, initial pilot study): < 100%"
COc1ccc(OCc2ccccn2)c(C=O)c1 [INN-310],,2.4 (20%),,,100,,,
"O=Cc1ccc(CO)o1 [5-HMF, 5-Hydroxymethyl-2-furfural]",,1.1 (10%),,,,12 to 20 h,,"Bmax ([1]; Universal Method, sigmoidal Bmax model, PE (COV)): 0.20 (6%); time to approach equilibrium ([4]; 5-HMF in the presence of HbA): 24 to 30 h; Bmax [4, 5]: 0.092 (10%); Bmax / HbA0 [4, 5]: 0.74 (10%); pKd [4, 5]: 3.55; pKd ([4]; read-out: binding affinity, 5-HMF in the presence of HbA): 3.60"
O=Cc1c(O)cccc1OCc1cccc(CO)n1 [VZHE-039],,1.9 (34%),< 360,,100,less than half an hour,less than 5 fold,fold shorter t1/2^eq relative to 5-HMF ([2]; current experimental conditions): more than 50 fold
"O=Cc1ccc(C=O)o1 [2,5-DMF, 2,5-Furandicarboxaldehyde]",3.72,1.7(21%),,3.92,,,2 fold,koff ([2]; read-out: koff (first-order dissociation rate constant)): 1.81e-05 s⁻¹
